In publication PMC6901909, “Synergy Pattern of Short Cationic Antimicrobial Peptides Against Multidrug-Resistant Pseudomonas aeruginosa” (Frontiers in Microbiology, 2019):
≈ marks a conversion by molar mass, not a printed value. Read-outs that look alike come from different tables or passages of the source. Each block holds one compound with its values, some of them ahead of it. Bridge positions count the residues as written; N and C are the ends. Square brackets hold non-standard residues; d marks the D form. Peptide text beside a SMILES is read from it. * marks the point of attachment. X1 = CC[C@H](C)CCCCC(=O)*; Dab = NCC[C@H](N)C(=O)O

What was measured:
MDR P. aeruginosa PA253 = experiment: microbe, parasite or virus in culture; type: cell-based, Pseudomonas aeruginosa; conditions: for MIC: conventional antibiotics, 2–5 10^5 CFU/ml, at least three repeats (n = 3)
Method in brief: (§1)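 Clinical and municipal waste-water MDR isolates were tested by broth microdilution in Mueller-Hinton broth with twofold serial dilutions at 2–5 10^5 CFU/ml. Plates were incubated 18 h at 37°C in polypropylene plates. MIC was read visually.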

MDR P. aeruginosa PA 919 = experiment: microbe, parasite or virus in culture; type: cell-based, Pseudomonas aeruginosa; conditions: for MIC: conventional antibiotics, 2–5 10^5 CFU/ml, at least three repeats (n = 3)
Method in brief: as §1

MDR P. aeruginosa PA 915 = experiment: microbe, parasite or virus in culture; type: cell-based, Pseudomonas aeruginosa; conditions: conventional antibiotics, microdilution, Mueller-Hinton broth, 2–5 10^5 CFU/ml, 18 h at 37°C, read visually, at least three repeats (n = 3)
Method in brief: as §1

MDR P. aeruginosa PA 927 = experiment: microbe, parasite or virus in culture; type: cell-based, Pseudomonas aeruginosa; conditions: conventional antibiotics, microdilution, Mueller-Hinton broth, 2–5 10^5 CFU/ml, 18 h at 37°C, read visually, at least three repeats (n = 3)
Method in brief: as §1

P. aeruginosa PA01-wt = experiment: microbe, parasite or virus in culture; type: cell-based, Pseudomonas aeruginosa; conditions: for MIC: conventional antibiotics, 2–5 10^5 CFU/ml, at least three repeats (n = 3)
MDR P. aeruginosa PA 923 = experiment: microbe, parasite or virus in culture; type: cell-based, Pseudomonas aeruginosa; conditions: conventional antibiotics, microdilution, Mueller-Hinton broth, 2–5 10^5 CFU/ml, 18 h at 37°C, read visually, at least three repeats (n = 3)
Method in brief: as §1

MDR P. aeruginosa PA 910 = experiment: microbe, parasite or virus in culture; type: cell-based, Pseudomonas aeruginosa
Method in brief: as §1

[1] = test system: MDR isolate of P. aeruginosa (PA 910); conditions: checkerboard, MHb, for the Indopt versions 1/8 MHb, 2–5 × 10^5 CFU/ml, 37°C, 18 h, visual, determined once (n = 1)
Experimental: The checkerboard assay was used to determine the fractional inhibitory concentrations (FICs), following the protocol described in Koneman’s Color Atlas and Textbook of Diagnostic Microbiology ([Winn et al., 2006]). Briefly, combinations of peptides and antibiotics were prepared in 96-well plates (polypropylene, Corning) in a twofold dilution series. After the addition of a log-phase bacterial inoculum of 2–5 × 10^5 CFU/ml, plates were incubated at 37°C for 18 h. The FICs were determined by visual inspection and the effects of the combinations were determined using the FICs. The FIC was computed by adding two partial FIC values, FICA—the MIC of drug A, tested in combination with drug B divided by the MIC of drug A, tested alone and FICB—the MIC of drug B, tested in combination with drug A divided by the MIC of drug B, tested alone [FIC = FICA + FICB = (MICAB/MICA) + (MICBA/MICB), where MICA and MICB are the MICs of drugs A and B alone, respectively, and MICAB and MICBA are the MIC concentrations of the drugs in combination]. Here we use the European Committee for Antimicrobial Susceptibility Testing (EUCAST) definition, which is very similar to the definition provided by [Odds, 2003], except Odds define additive effects when FIC values are between 0.5 and 1 ([European Committee for Antimicrobial Susceptibility Testing [EUCAST] of the European Society of Clinical Microbiology and Infectious Diseases [ESCMID], 2000]; [Odds, 2003]). The combination of peptide (drug A) and antibiotics (drug B) was defined as synergistic if the FIC was ≤ 0.5, indifferent if the FIC was > 0.5 but ≤ 4.0 and antagonistic if the FIC was > 4.0.

[2] = Pseudomonas aeruginosa, microdilution, Mueller-Hinton broth, 18 h at 37°C, read visually
[3] = Pseudomonas aeruginosa, PA01WT, microdilution, Mueller-Hinton broth, 18 h at 37°C, read visually
[4] = Pseudomonas aeruginosa, 18 h, antibiotic alone, as listed in the FIC table, read-out: MIC against PA910 in μM (antibiotics, head of Table 4)
[5] = Pseudomonas aeruginosa, conventional antibiotics, microdilution, Mueller-Hinton broth, 2–5 10^5 CFU/ml, 18 h at 37°C, read visually, at least three repeats (n = 3), read-out: MIC PA 910
[6] = microdilution, Mueller-Hinton broth, 18 h at 37°C, read visually
[7] = four classes defined from the MIC values, 1 strong to 4 weak
[8] = short AMPs, microdilution, Mueller-Hinton broth, 18 h at 37°C, read visually, triplicate (n = 3)

SMILES: NCC[C@H](O)C(=O)N[C@@H]1C[C@H](N)[C@@H](O[C@H]2O[C@H](CN)[C@@H](O)[C@H](O)[C@H]2O)[C@H](O)[C@H]1O[C@H]1O[C@H](CO)[C@@H](O)[C@H](N)[C@H]1O [Amikacin]
MIC (MDR P. aeruginosa PA253; [2]): 8 to 16 µM (≈ 4.68 to 9.37 µg/mL)
MIC (MDR P. aeruginosa PA 919; [2]): 32 µM (≈ 18.7 µg/mL)
MIC (MDR P. aeruginosa PA 915; Pseudomonas aeruginosa): 4 µM (≈ 2.34 µg/mL)
MIC (MDR P. aeruginosa PA 927; Pseudomonas aeruginosa): 4 µM (≈ 2.34 µg/mL)
MIC (P. aeruginosa PA01-wt; [3]): 1 µM (≈ 0.586 µg/mL)
MIC (MDR P. aeruginosa PA 923; Pseudomonas aeruginosa): 4 µM (≈ 2.34 µg/mL)
MIC (MDR P. aeruginosa PA 910; [4]): 2 to 4 µM
MIC (MDR P. aeruginosa PA 910; [5]): 2 to 4 µM (≈ 1.17 to 2.34 µg/mL)

SMILES: CC[C@H](C)[C@H](NC(=O)[C@H](CCCCN)NC(=O)[C@H](CCC(=O)O)NC(=O)[C@H](CCCCN)NC(=O)[C@H](CO)NC(=O)[C@H](CCCCN)NC(=O)[C@H](CCCNC(=N)N)NC(=O)[C@H](Cc1ccccc1)NC(=O)[C@H](Cc1ccccc1)NC(=O)[C@H](CC(=O)O)NC(=O)CNC(=O)[C@H](CC(C)C)NC(=O)[C@@H](N)CC(C)C)C(=O)NCC(=O)N[C@@H](CCCCN)C(=O)N[C@@H](CCC(=O)O)C(=O)N[C@@H](Cc1ccccc1)C(=O)N[C@@H](CCCCN)C(=O)N[C@@H](CCCNC(=N)N)C(=O)N[C@H](C(=O)N[C@H](C(=O)N[C@@H](CCC(N)=O)C(=O)N[C@@H](CCCNC(=N)N)C(=O)N[C@H](C(=O)N[C@@H](CCCCN)C(=O)N[C@@H](CC(=O)O)C(=O)N[C@@H](Cc1ccccc1)C(=O)N[C@@H](CC(C)C)C(=O)N[C@@H](CCCNC(=N)N)C(=O)N[C@@H](CC(N)=O)C(=O)N[C@@H](CC(C)C)C(=O)N[C@H](C(=O)N1CCC[C@H]1C(=O)N[C@@H](CCCNC(=N)N)C(=O)N[C@H](C(=O)N[C@@H](CCC(=O)O)C(=O)N[C@@H](CO)C(=O)O)[C@@H](C)O)C(C)C)[C@@H](C)CC)C(C)C)[C@@H](C)CC [LL37]
FIC, combination with AMI ([1]; peptide + amikacin): 2
FIC, combination with CEF ([1]; peptide + cefepime): 2
FIC, combination with CET ([1]; peptide + ceftazidime): 0.75
FIC, combination with CIP ([1]; peptide + ciprofloxacin): 0.51
FIC, combination with ERY ([1]; peptide + erythromycin): 0.51
FIC, combination with GEN ([1]; peptide + gentamycin): 2
FIC, combination with IMI ([1]; peptide + imipenem): 1
FIC, combination with KAN ([1]; peptide + kanamycin): 1
FIC, combination with MER ([1]; peptide + meropenem): 0.51
FIC, combination with PIP ([1]; peptide + piperacillin): 2
FIC, combination with PMB ([1]; peptide + polymyxin B): 0.63
FIC, combination with TET ([1]; peptide + tetracycline): 0.5
FIC, combination with TOB ([1]; peptide + tobramycin): 2
activity class by MIC (number in brackets), PA253 (MDR P. aeruginosa PA253; [7]): 4 (the least active class includes peptides with MIC values larger than 32 μM)
MIC against MDR isolates of PA, PA253 (MDR P. aeruginosa PA253; [8]): 64 µM
activity class by MIC (number in brackets), PA919 (MDR P. aeruginosa PA 919; [7]): 3 (class 3 includes peptides with MIC values between 16 and 32 μM)
MIC against MDR isolates of PA, PA919 (MDR P. aeruginosa PA 919; [8]): 16 µM
activity class by MIC (number in brackets), PA01 wt (P. aeruginosa PA01-wt; [7]): 3 (class 3 includes peptides with MIC values between 16 and 32 μM)
MIC against PA01 wt (P. aeruginosa PA01-wt; [8]): 16 µM (≈ 71.9 µg/mL)
activity class by MIC (number in brackets), PA910 (MDR P. aeruginosa PA 910; [7]): 4 (the least active class includes peptides with MIC values larger than 32 μM)
MIC against PA910 in μM (peptides, Table 4) (MDR P. aeruginosa PA 910; peptide alone, as listed in the FIC table): 64 µM
MIC against MDR isolates of PA, PA910 (MDR P. aeruginosa PA 910; [8]): 64 µM

Next, values leading:

MIC (MDR P. aeruginosa PA253; [2]): > 256 µM
MIC (MDR P. aeruginosa PA 919; [2]): 64 µM (≈ 33.1 µg/mL)
MIC (MDR P. aeruginosa PA 915; Pseudomonas aeruginosa): > 256 µM
MIC (MDR P. aeruginosa PA 927; Pseudomonas aeruginosa): 256 µM (≈ 132 µg/mL)
MIC (P. aeruginosa PA01-wt; [3]): 4 µM (≈ 2.07 µg/mL)
MIC (MDR P. aeruginosa PA 923; Pseudomonas aeruginosa): 128 µM (≈ 66.2 µg/mL)
MIC (MDR P. aeruginosa PA 910; [4]): 64 to 128 µM
MIC (MDR P. aeruginosa PA 910; [5]): 64 to 128 µM (≈ 33.1 to 66.2 µg/mL)
SMILES: CCN1CCN(C(=O)N[C@@H](C(=O)N[C@@H]2C(=O)N3[C@@H]2SC(C)(C)[C@@H]3C(=O)O)c2ccccc2)C(=O)C1=O [Piperacillin]

MIC (MDR P. aeruginosa PA253; [6]): 0.125 µM (≈ 0.15 µg/mL)
MIC (MDR P. aeruginosa PA 919; [6]): 0.125 µM (≈ 0.15 µg/mL)
MIC (MDR P. aeruginosa PA 915): 0.25 µM (≈ 0.301 µg/mL)
MIC (MDR P. aeruginosa PA 927): 0.25 µM (≈ 0.301 µg/mL)
MIC (P. aeruginosa PA01-wt; [6]): 0.125 µM (≈ 0.15 µg/mL)
MIC (MDR P. aeruginosa PA 923): 0.25 µM (≈ 0.301 µg/mL)
MIC (MDR P. aeruginosa PA 910; antibiotic alone, as listed in the FIC table, read-out: MIC against PA910 in μM (antibiotics, head of Table 4)): 0.13 µM
MIC (MDR P. aeruginosa PA 910; conventional antibiotics, microdilution, Mueller-Hinton broth, 2–5 10^5 CFU/ml, 18 h at 37°C, read visually, at least three repeats (n = 3), read-out: MIC PA 910): 0.125 µM (≈ 0.15 µg/mL)
SMILES: CC[C@H](C)CCCCC(=O)N[C@@H](CCN)C(=O)N[C@H](C(=O)N[C@@H](CCN)C(=O)N[C@H]1CCNC(=O)[C@H]([C@@H](C)O)NC(=O)[C@H](CCN)NC(=O)[C@H](CCN)NC(=O)[C@H](CC(C)C)NC(=O)[C@@H](Cc2ccccc2)NC(=O)[C@H](CCN)NC1=O)[C@@H](C)O [Polymyxin B] (X1-[Dab]T[Dab][Dab][Dab][dF]L[Dab][Dab]T; lactam 4-C (inferred); N-terminus assumed)

MIC (MDR P. aeruginosa PA253; [2]): > 128 µM
MIC (MDR P. aeruginosa PA 919; [2]): > 128 µM
MIC (MDR P. aeruginosa PA 915; Pseudomonas aeruginosa): > 128 µM
MIC (MDR P. aeruginosa PA 927; Pseudomonas aeruginosa): > 128 µM
MIC (P. aeruginosa PA01-wt; [3]): 2 to 4 µM (≈ 0.767 to 1.53 µg/mL)
MIC (MDR P. aeruginosa PA 923; Pseudomonas aeruginosa): > 128 µM
MIC (MDR P. aeruginosa PA 910; [4]): > 128 µM
MIC (MDR P. aeruginosa PA 910; [5]): > 128 µM
SMILES: C[C@@H](O)[C@H]1C(=O)N2C(C(=O)O)=C(S[C@@H]3CN[C@H](C(=O)N(C)C)C3)[C@H](C)[C@H]12 [Meropenem]
